US20090221624A1, “4-AMINOQUINOLINE COMPOUNDS FOR TREATING VIRUS-RELATED CONDITIONS” (priority 2005, published 2009)
Read-outs that look alike come from different tables or passages of the source.

Key:
[1] = system: viable cells (intracellular ATP)
YFV (YF-hRuPac cells) = assay: microbe, parasite or virus in culture; type: cell-based, yellow fever virus; details: for EC50 / inhibition at 25 µM: Yellow fever virus; for EC50: read-out: YFV EC50; for inhibition at 25 µM: 24 h, read-out: YFV Inh
WNV (WN-hRuPac cells) = assay: WNV antiviral activity, WN-hRuPac cells, Renilla luciferase; type: cell-based, West Nile virus; details: for EC50 / inhibition at 25 µM: West Nile virus; for EC50: Secondary Data, WNV, read-out: WNV EC50; for WNV TI: therapeutic index CC50/EC50, WNV; for inhibition at 25 µM: primary screening, 25 μM final concentration, 24 hours, percent inhibition of viral replication, read-out: WNV Inh
RSV minigenome = assay: RSV minigenome-dependent β-galactosidase expression assay (RSV β-Gal); type: cell-based, respiratory syncytial virus; details: for EC50: Secondary Data, RSV, read-out: RSV EC50; for RSV TI: therapeutic index CC50/EC50, RSV; for inhibition at 25 µM: primary screening, 25 μM final concentration, 24 hours, percent inhibition of viral replication, read-out: RSV Inh
DNG (D2-hRuPac cells) = assay: DNG antiviral activity, D2-hRuPac cells, Renilla luciferase; type: cell-based, Dengue fever virus; details: Dengue virus, secondary screening
SINV (SR19-F-luc cells) = assay: SINV antiviral activity, SR19-F-luc cells, Firefly luciferase; type: cell-based; details: Sindbis virus; for EC50: secondary screening, SR19-F-luc cells; for inhibition at 25 µM: primary screening, 25 μM final concentration, 24 hours, percent inhibition of viral replication, read-out: SINV Inh
EBOV minigenome = assay: microbe, parasite or virus in culture; type: cell-based, Ebola virus; details: for EC50: read-out: EBOV EC50; for inhibition at 25 µM: 24 h, read-out: EBOV Inh
[2] = system: HCV replicon (Clone A cells, Huh7, subgenomic hepatits C virus RNA); assay: HCV Neo screening assay (HCV replicon, NPTII ELISA); type: cell-based, hepatitis C virus; details: for EC50 / inhibition at 25 µM: Hepatitis C virus, Huh-7; for EC50: Secondary Data, HCV; for inhibition at 25 µM: primary screening, 25 μM final concentration, 24 hours, percent inhibition of viral replication, read-out: HCV Inh; for HCV TI: therapeutic index CC50/EC50, HCV
[3] = human respiratory syncytial virus

Row | SMILES | YFV TI (YFV (YF-hRuPac cells)) | EC50 (YFV (YF-hRuPac cells)) | CC50 (in vitro; HCV CC50) | EC50 (WNV (WN-hRuPac cells)) | WNV TI (WNV (WN-hRuPac cells)) | RSV TI (RSV minigenome) | EC50 (DNG (D2-hRuPac cells)) | EC50 (SINV (SR19-F-luc cells)) | inhibition at 25 µM (YFV (YF-hRuPac cells)) | CC50 (in vitro; DNG CC50) | CC50 (in vitro; EBOV CC50) | CC50 (in vitro; RSV CC50) | CC50 (in vitro; SINV CC50) | CC50 (in vitro; WNV CC50) | CC50 (in vitro; YFV CC50) | inhibition at 25 µM [2] | inhibition at 25 µM (WNV (WN-hRuPac cells)) | EC50 (RSV minigenome; [3]) | inhibition at 25 µM (RSV minigenome; [3]) | inhibition at 25 µM (SINV (SR19-F-luc cells)) | also measured
1 | COc1ccccc1Nc1cc(C)nc2c(C)c(C)cc(N)c12 [Compound 79] | 16.53 | 3.1 µM | ≥ 75 µM | 19 µM | 2.7 | 23.3 | 8.26 µM | 8.57 µM | – | – | – | – | – | – | – | – | – | – | – | – | CC50 [1]: 51.2 µM; EC50 (RSV minigenome): 2.2 µM; EBOV Inh (EBOV minigenome): 49.83%; EC50 (EBOV minigenome): 43.5 µM
2 | Cc1ccc2nc3c(c(Nc4cccc(C(F)(F)F)c4)c2c1)CCC3 [Compound 26] | 8.88 | 5.98 µM | 8.35 µM | 3.71 µM | 14.32 | 12.95 | 48.2 µM | 18.5 µM | 77.2% | 53.1 µM | 53.1 µM | 53.1 µM | 53.1 µM | 53.1 µM | 53.1 µM | 148% | 62.2% | 4.1 µM | 99.9% | 53.3% | EC50 [2]: 7.57 µM; HCV TI [2]: 1.1; inhibition at 25 µM (EBOV minigenome; Zaire ebolavirus): 38.8%; EC50 (EBOV minigenome; Zaire ebolavirus): 75 µM
3 | CCOC(=O)c1cnc2c(C)cccc2c1NCc1ccco1 [Compound 46] | 13.87 | 3.54 µM | – | 2.96 µM | 16.59 | 37.48 | 10.2 µM | 49.7 µM | 97.7% | 49.1 µM | 49.1 µM | 49.1 µM | 49.1 µM | 49.1 µM | 49.1 µM | 15% | 103% | 1.31 µM | 94.7% | -16.9% | inhibition at 25 µM (EBOV minigenome; Zaire ebolavirus): 90%; EC50 (EBOV minigenome; Zaire ebolavirus): 7.92 µM
4 | CCOc1ccc2nc(C)cc(Nc3ccc(Br)cc3)c2c1 [Compound 41] | 7.97 | 3.61 µM | 3.01 µM | 7.4 µM | 3.89 | 14.11 | 7.91 µM | 2.96 µM | 96.5% | 28.8 µM | 28.8 µM | 28.8 µM | 28.8 µM | 28.8 µM | 28.8 µM | 117% | 100% | 2.04 µM | 99.4% | 97.2% | EC50 [2]: 4 µM; HCV TI [2]: 0.75; inhibition at 25 µM (EBOV minigenome; Zaire ebolavirus): 95.2%; EC50 (EBOV minigenome; Zaire ebolavirus): 75 µM
5 | COc1ccc(Nc2cc(C)nc3ccccc23)cc1 [Compound 20] | 2.83 | 26.5 µM | 64.2 µM | ≥ 75 µM | – | 8.8 | 42 µM | 4.28 µM | 51% | ≥ 75 µM | ≥ 75 µM | ≥ 75 µM | ≥ 75 µM | ≥ 75 µM | ≥ 75 µM | 14.8% | 38.4% | 8.52 µM | 61.4% | 75.5% | inhibition at 25 µM (EBOV minigenome; Zaire ebolavirus): 21%; EC50 (EBOV minigenome; Zaire ebolavirus): 50.1 µM
